Patent US20100249145A1, “Inhibitors of VEGF Receptor and HGF Receptor Signaling” (Methylgene, Inc., priority 2005, published 2010)
pIC50: −log10 of the molar value. Read-outs that look alike come from different tables or passages of the source.

Tests used:
[1] = target: T1, VEGF receptor KDR (Homo sapiens, UniProt P35968); test: In vitro receptor tyrosine kinase assay (DELFIA), VEGF receptor KDR; type: biochemical; details: ATP 0.6 uM, enzyme 5 nM
T1 construct: made in house; host or cells: Sf9 cells (Spodoptera frugiperda), recombinant baculovirus
From the text: In Vitro Receptor Tyrosine Kinase Assays (c-Met/HGF receptor and VEGF Receptor KDR)
In the case of VEGF receptor KDR a 1.6-kb cDNA corresponding to the catalytic domain of VEGFR2 or KDR (Genbank accession number AF035121 amino acid 806 to 1356) was cloned into the Pst I site of the pDEST20 Gateway vector (Invitrogen) for the production of a GST-tagged version of that enzyme.
The GST-VEGFR2806-1356 protein was expressed in Sf9 cells (Spodoptera frugiperda) upon infection with recombinant baculovirus construct.
The supernatant was loaded onto a GST-agarose column (Sigma) equilibrated with PBS pH 7.3. Following a four column volume (CV) wash with PBS pH 7.3+1% Triton X-100 and 4 CV wash with buffer B (50 mM Tris pH 8.0, 20% glycerol and 100 mM NaCl), bound proteins were step eluted with 5 CV of buffer B supplemented with 5 mM DTT and 15 mM glutathion. […] Final GST-VEGFR2806-1356 protein preparations concentrations were about 0.7 mg/ml with purity approximating 70%.

[2] = test system: A549; test: A549 wound healing inhibition (HGF dependent migration); type: cell-based; details: Homo sapiens, Table 31, read-out: A549 wound healing inbib IC50
From the text: (§1) HGF has well known activity in terms of inducing scattering and migration (wound healing) (Wells et al., Cell Motil Cytoskeleton. 2005 November 62(3):180-94; Miura et al., Urology 2001 December 58(6):1064-9; Nishimura et al., Int J. Urol. 1998 May 5(3):276-81; Wang et al., Mol Cancer Ther. 2003 November; 2(11):1085-92; and Christensen et al., Cancer Res. 2003 Nov. 1; 63(21):7345-55).

[3] = target: T2, recombinant human c-Met/HGF receptor (Homo sapiens, UniProt P08581); test: In vitro receptor tyrosine kinase assay (DELFIA), c-Met/HGF receptor; type: biochemical; details: ATP 10 uM, enzyme 25 nM
T2 construct: His tag (histidine tag from pBlueBacHis2A); made in house; host or cells: Hi-5 cells (Trichoplusia ni), recombinant baculovirus

[4] = test system: DU145; test: DU145 scattering inhibition (HGF dependent scattering); type: cell-based; details: Homo sapiens, DU-145, Table 31, read-out: DU145 scattering inhib IC50
From the text: as §1

[5] = Table 30, read-out: VEGF(enz.) (IC50)
[6] = Table 30, read-out: C-Met (enz.) (IC50)

T1 sequence (P35968 806-1356): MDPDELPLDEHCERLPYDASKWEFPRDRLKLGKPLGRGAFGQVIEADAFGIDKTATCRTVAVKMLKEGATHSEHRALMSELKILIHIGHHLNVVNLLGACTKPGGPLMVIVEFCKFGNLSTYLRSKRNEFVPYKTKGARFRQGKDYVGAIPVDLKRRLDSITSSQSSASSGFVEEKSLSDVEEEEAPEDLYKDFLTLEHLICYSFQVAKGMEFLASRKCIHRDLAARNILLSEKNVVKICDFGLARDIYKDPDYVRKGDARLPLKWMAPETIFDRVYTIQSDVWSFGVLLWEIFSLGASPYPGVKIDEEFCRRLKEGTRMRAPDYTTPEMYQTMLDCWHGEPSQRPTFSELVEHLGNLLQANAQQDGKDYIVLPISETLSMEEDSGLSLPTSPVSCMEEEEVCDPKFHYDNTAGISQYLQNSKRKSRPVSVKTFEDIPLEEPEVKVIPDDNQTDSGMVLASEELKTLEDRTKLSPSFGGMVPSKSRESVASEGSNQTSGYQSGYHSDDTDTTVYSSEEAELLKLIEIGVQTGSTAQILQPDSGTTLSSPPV
T2 sequence (P08581 1078-1337): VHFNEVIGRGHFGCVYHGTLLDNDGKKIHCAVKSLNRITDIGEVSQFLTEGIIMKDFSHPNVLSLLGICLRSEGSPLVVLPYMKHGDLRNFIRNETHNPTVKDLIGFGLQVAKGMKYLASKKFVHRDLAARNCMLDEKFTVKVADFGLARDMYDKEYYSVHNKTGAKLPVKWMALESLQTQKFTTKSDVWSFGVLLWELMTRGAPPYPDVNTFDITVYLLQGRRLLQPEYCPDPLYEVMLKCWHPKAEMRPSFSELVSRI

pIC50 ([1]; Table 31, read-out: VEGFR IC50)	pIC50 [2]	pIC50 ([3]; Table 31, read-out: CMet ic50)	pIC50 [4]	pIC50 [1, 5]	pIC50 [3, 6]	SMILES
> 7.30	5.30 to 6.00	> 7.30	5.30 to 6.00			CCn1cnc(-c2cc3nccc(Oc4ccc(NC(=S)NC(=O)Cc5ccccc5O)cc4F)c3s2)c1
	5.30 to 6.00	> 7.30	> 6.00			CCn1cncc1-c1cc2nccc(Oc3ccc(NC(=S)NC(=O)Cc4ccccc4OC)cc3F)c2s1
> 7.30	> 6.00	> 7.30				Cc1ccccc1CC(=O)NC(=S)Nc1ccc(Oc2ccnc3cc(-c4cn(C)cn4)sc23)c(F)c1
> 7.30	5.30 to 6.00	> 7.30	5.30 to 6.00			C#Cc1cccc(CC(=O)NC(=S)Nc2ccc(Oc3ccnc4cc(-c5cn(C)cn5)sc34)c(F)c2)c1
> 7.30	< 5.00	6.60 to 7.30	< 5.00			C#Cc1ccc(CC(=O)NC(=S)Nc2ccc(Oc3ccnc4cc(-c5cn(CCN6CCCC6)cn5)sc34)c(F)c2)cc1
> 7.30	< 5.00	6.60 to 7.30	5.30 to 6.00			C#Cc1ccc(CC(=O)NC(=S)Nc2ccc(Oc3ccnc4cc(-c5ccc(CN6CCN(C)CC6)cc5)sc34)c(F)c2)cc1
> 7.30	> 6.00	6.60 to 7.30	5.30 to 6.00			C#Cc1ccc(CC(=O)NC(=S)Nc2ccc(Oc3ccnc4cc(-c5nccn5C)sc34)c(F)c2)cc1F
> 7.30	5.30 to 6.00	> 7.30	5.30 to 6.00			C#Cc1ccc(F)c(CC(=O)NC(=S)Nc2ccc(Oc3ccnc4cc(-c5cn(C)cn5)sc34)c(F)c2)c1
> 7.30	5.30 to 6.00	> 7.30	5.30 to 6.00			C#Cc1ccc(F)c(CC(=O)NC(=S)Nc2ccc(Oc3ccnc4cc(-c5nccn5C)sc34)c(F)c2)c1
> 7.30	> 6.00	> 7.30	> 6.00			C#Cc1cc(F)ccc1CC(=O)NC(=S)Nc1ccc(Oc2ccnc3cc(-c4cn(C)cn4)sc23)c(F)c1
> 7.30	> 6.00	> 7.30	> 6.00			C#Cc1cc(F)ccc1CC(=O)NC(=S)Nc1ccc(Oc2ccnc3cc(-c4cn(CC)cn4)sc23)c(F)c1
> 7.30	< 5.00	6.60 to 7.30	5.30 to 6.00			C#Cc1ccc(CC(=O)NC(=S)Nc2ccc(Oc3ccnc4cc(-c5cn(CC)cn5)sc34)c(F)c2)cc1F
> 7.30	> 6.00	> 7.30	> 6.00			C#Cc1cc(F)ccc1CC(=O)NC(=S)Nc1ccc(Oc2ccnc3cc(-c4nccn4C)sc23)c(F)c1
< 6.30	< 5.00	6.60 to 7.30	5.30 to 6.00			C#Cc1cc2nccc(Oc3ccc(NC(=S)NC(=O)Cc4ccccc4)cc3F)c2s1
> 7.30	> 6.00	> 7.30	> 6.00			CNC(=O)N1CCN(Cc2ccc(-c3cc4nccc(Oc5ccc(NC(=S)NC(=O)Cc6ccccc6)cc5F)c4s3)cc2)CC1
> 7.30	> 6.00	> 7.30	> 6.00			CNC(=O)N1CCN(Cc2ccc(-c3cc4nccc(Oc5ccc(NC(=S)NC(=O)Cc6ccc(F)cc6)cc5F)c4s3)cc2)CC1
> 7.30	5.30 to 6.00	> 7.30	> 6.00			C#Cc1cc(F)ccc1CC(=O)NC(=S)Nc1ccc(Oc2ccnc3cc(-c4ccc(CN5CCN(C)CC5)cc4)sc23)c(F)c1
> 7.30	> 6.00	> 7.30	> 6.00			C#Cc1cc(F)ccc1CC(=O)NC(=S)Nc1ccc(Oc2ccnc3cc(-c4cn(CCN5CCCC5)cn4)sc23)c(F)c1
> 7.30	> 6.00	> 7.30	> 6.00			COCCNCc1ccc(-c2cc3nccc(Oc4ccc(NC(=S)NC(=O)Cc5ccc(F)cc5)cc4F)c3s2)cc1

pIC50 ([1]; Table 31, read-out: VEGFR IC50)	pIC50 [2]	pIC50 ([3]; Table 31, read-out: CMet ic50)	pIC50 [4]	pIC50 [1, 5]	pIC50 [3, 6]	SMILES
6.60 to 7.30	> 6.00	> 7.30	> 6.00			C#Cc1cc(F)ccc1CC(=O)NC(=S)Nc1ccc(Oc2ccnc3cc(C4=CCN(C)CC4)sc23)c(F)c1
6.30 to 6.60	> 6.00	> 7.30	> 6.00			CCn1cc(-c2cc3nccc(Oc4ccc(NC(=S)NC(=O)Cc5ccccc5)cc4F)c3s2)nn1
	> 6.00	> 7.30	> 6.00			COCCN(CCOC)Cc1cccc(-c2cc3nccc(Oc4ccc(NC(=S)NC(=O)Cc5ccc(F)cc5)cc4F)c3s2)c1
> 7.30		> 7.30	> 6.00			CN(CCO)Cc1ccc(-c2cc3nccc(Oc4ccc(NC(=S)NC(=O)Cc5ccc(F)cc5)cc4F)c3s2)nc1
	> 6.00		> 6.00			COCCNCc1ccc(-c2cc3nccc(Oc4ccc(NC(=S)NC(=O)Cc5ccc(F)cc5)cc4F)c3s2)c(F)c1
	> 6.00		> 6.00			CCCNCc1ccc(-c2cc3nccc(Oc4ccc(NC(=S)NC(=O)Cc5ccc(F)cc5)cc4F)c3s2)cc1
				6.60 to 7.30		CNC(=O)c1cc2nccc(Oc3ccc(NC(=S)NC(=O)Cc4ccccc4)cc3F)c2s1 [Example 5, 1-(4-(2-(methylcarbamoyl)thieno[3,2-b]pyridin-7-yloxy)-3-fluorophenyl)-3-(2-phenylacetyl)thiourea]
				6.60 to 7.30		NC(=O)c1cc2nccc(Oc3ccc(NC(=S)NC(=O)Cc4ccccc4)cc3F)c2s1 [Example 9, 1-(4-(2-carbamoylthieno[3,2-b]pyridin-7-yloxy)-3-fluorophenyl)-3-(2-phenylacetyl)thiourea]
				6.60 to 7.30		O=C(Cc1ccccc1)NC(=S)Nc1ccc(Oc2ccnc3cc(-c4ncccn4)sc23)c(F)c1 [Example 14, N-(3-Fluoro-4-(2-(pyrimidin-2-yl)thieno[3,2-b]pyridin-7-yloxy)phenylcarbamothioyl)-2-phenylacetamide]
				> 7.30		O=C(Cc1ccccc1)NC(=S)Nc1ccc(Oc2ccnc3cc(-c4cccs4)sc23)c(F)c1 [Example 16]
				6.60 to 7.30		O=C(Cc1ccccc1)NC(=S)Nc1ccc(Oc2ccnc3cc(-c4cccnc4)sc23)c(F)c1 [Example 18]
				< 6.30		CC(O)c1cc2nccc(Oc3ccc(NC(=S)NC(=O)Cc4ccccc4)cc3F)c2s1 (centres unmarked) [Example 20, 1-(4-(2-(1-Hydroxyethyl)thieno[3,2-b]pyridin-7-yloxy)-3-fluorophenyl)-3-(2-phenylacetyl)thiourea]
				6.60 to 7.30	6.60 to 7.30	CNC(=O)c1cc2ncnc(Oc3ccc(NC(=S)NC(=O)Cc4ccccc4)cc3F)c2s1 [Example 25, 1-(4-(6-(Methylcarbamoyl)thieno[3,2-d]pyrimidin-4-yloxy)-3-fluorophenyl)-3-(2-phenylacetyl)thiourea]
				6.60 to 7.30	6.60 to 7.30	CON(C)C(=O)c1cc2ncnc(Oc3ccc(NC(=S)NC(=O)Cc4ccccc4)cc3F)c2s1 [Example 26, 1-(4-(6-(N-Methoxy-N-methylcarbamoyl)thieno [3,2-d]pyrimidin-4-yloxy)-3-fluorophenyl)-3-(2-phenylacetyl)thiourea]
				6.60 to 7.30	6.60 to 7.30	NC(=O)c1cc2ncnc(Oc3ccc(NC(=S)NC(=O)Cc4ccccc4)cc3F)c2s1 [Example 27, 1-(4-(6-Carbamoylthieno[3,2-d]pyrimidin-4-yloxy)-3-fluorophenyl)-3-(2-phenylacetyl)thiourea]
				< 6.30	6.60 to 7.30	Cn1ccc2ncnc(Oc3ccc(NC(=S)NC(=O)Cc4ccccc4)cc3F)c21 [Example 28, 1-(4-(5-Methyl-5H-pyrrolo[3,2-d]pyrimidin-4-yloxy)-3-fluorophenyl)-3-(2-phenylacetyl)thiourea]
				< 6.30	6.30 to 6.60	CCn1ccc2ncnc(Oc3ccc(NC(=S)NC(=O)Cc4ccccc4)cc3F)c21 [Example 29, 1-(4-(5-Ethyl-5H-pyrrolo[3,2-d]pyrimidin-4-yloxy)-3-fluorophenyl)-3-(2-phenylacetyl)thiourea]
				6.60 to 7.30		O=C(Cc1ccccc1)NC(=S)Nc1ccc(Oc2ccnc3ccsc23)c(F)c1 [Example 133, N-(3-Fluoro-4-(thieno[3,2-b]pyridin-7-yloxy)phenylcarbamothioyl)-2-phenylacetamide]
				< 6.30		O=C(Cc1ccccc1)NC(=S)Nc1ccc(Oc2ccnc3ccsc23)cc1 [Example 188, 2-Phenyl-N-(4-(thieno[3,2-b]pyridin-7-yloxy)phenylcarbamothioyl)acetamide]

SMILES	pIC50 ([1]; Table 31, read-out: VEGFR IC50)	pIC50 [2]	pIC50 ([3]; Table 31, read-out: CMet ic50)	pIC50 [4]	pIC50 [1, 5]	pIC50 [3, 6]
COCCNCc1ccc(-c2cc3nccc(Oc4ccc(NC(=S)NC(=O)Cc5ccc(F)cc5)cc4F)c3s2)nc1	> 7.30	> 6.00		> 6.00		
